In brackets after ≈: the same amount, converted by molar mass. Like-named read-outs stand apart in the source and are kept apart here. Where a SMILES comes first, the peptide text is derived from it. [ ]: non-standard residue; d: D form. The star is where a group is joined. Levofloxacinoyl = C[C@H]1COc2c(N3CCN(C)CC3)c(F)cc3c(=O)c(C(=O)*)cn1c23
Assays:
[1] = test system: P. aeruginosa (ATCC 10145); test: Antibacterial broth microdilution MIC assay; assay type: cell-based, Pseudomonas aeruginosa; details: >99% inhibition of growth, MH broth, 20-22 h, 37 °C
Protocol: (§1) The antibacterial activity of peptide analogs was tested against different bacterial strains, i.e., Salmonella enterica subsp. enterica serotype Typhimurium or Salmonella typhi (ATCC 14028), Staphylococcus aureus (NCTC 13277), Bacillus subtilis (ATCC 23857), Escherichia coli (ATCC 25922), and Pseudomonas aeruginosa (ATCC 10145). These strains were obtained from the microbial bank of Dr. Panjwani Center for Molecular Medicine and Drug research (PCMD), International Center for Chemical and Biological Sciences (ICCBS), University of Karachi. Colonies of these bacterial strains were grown in respective agar media, then inoculated in Mueller Hinton (MH) broth (Oxoid, UK) and incubated at 37 °C overnight. The peptide solutions were first diluted 1 in 100 (from the stock solution at 20 mM) and then further two-fold dilution in MH broth in a sterile 96-well plate was performed, resulting in 100 µL of broth containing increasing concentrations of analogs. Bacteria in their exponential growth phase were diluted in MH broth, and 100 µL of this suspension was added in each well. […] Then, these plates were incubated at 37 °C for 20–22 h. MIC (Minimum Inhibitory Concentration) values were determined as the concentrations of peptides causing >99% inhibition of bacterial growth.

E. coli (ATCC 25922) = test: Antibacterial broth microdilution MIC assay; assay type: cell-based, Escherichia coli; details: >99% inhibition of growth, MH broth, 20-22 h, 37 °C
Protocol: as §1

S. aureus (NCTC 13277) = details: >99% inhibition of growth, MH broth, 20-22 h, 37 °C
[2] = test system: human red blood cells (RBC); details: previously reported; cited from earlier work
[3] = test system: Human breast cancer (MCF-7) cells; test: cells; assay type: cell-based
Protocol: (§2) Human breast cancer (MCF-7) and human cervical cancer (HeLa) cells were obtained from the cell culture bank of PCMD in ICCBS, University of Karachi. These cells were maintained in Dulbecco’s Modified Eagle Medium (DMEM), supplemented with 10% fetal bovine serum, and incubated at 37 °C and 5% CO2. The antiproliferative activity of the samples was determined by a MTT assay. Briefly, the cells were washed with PBS and trypsinized. After determination of the cell number using Malassez cell counting, 100 µL of the cell suspension were seeded in a 96-well plate at the density of 6000 cells/well and incubated at 37 °C and 5% CO2. After 24 h, the cells were treated with increasing concentrations of analogs. The next day, media was removed and 200 µL of MTT dye (0.5 mg/mL) was added in each well and incubated for 3 h at 37 °C in 5% CO2 incubator. Then, the media was removed and 100 µL of DMSO was added to solubilize formazan crystals. After one minute of shaking, the absorbance was recorded at 540 nm in microplate reader (Multiskan GO, ThermoScientific, Waltham, MA, USA). Finally, the percent inhibition of proliferation was calculated using the following formula: % inhibition of proliferation=O.D of treated well−O.D of media control/O.D of untreated control−O.D of media control×100

[4] = test system: human cervical cancer (HeLa) cells; test: cells; assay type: cell-based
Protocol: as §2

[5] = test system: human red blood cells (RBC); test: Hemolytic assay; assay type: cell-based
Protocol: For the hemolytic assay, fresh human blood (2 mL) was obtained from a healthy donor in EDTA tube while following the protocol of approval from the Independent Ethics Committee of ICCBS (approval number ICCBS/IEC-047-HB-2019/Protocol/1.0). The blood was centrifuged and upper supernatant plasma was removed. The cell pellets were washed with sterile PBS three times. The washed blood cells were then diluted 25 times to make 4% concentration of the initial blood cells. Red blood cells (500 µL) were treated with increasing concentrations of analogs, with triton X-100 at 0.1% being used as positive control giving 100% hemolysis. After 1 h of incubation at 37 °C, tubes were centrifuged at 800 rpm for 5 min to pellet down red blood cells. After centrifugation, 200 µL of supernatant were transferred into a 96 well plate and the absorbance was recorded at 576 nm using a microplate reader (MultiSkan Go, ThermoScientific). Then, the following formula was applied to calculate percent hemolysis: % Hemolysis=O.D of test sample−O.D of PBS control/O.D of Tritox×positive control−O.D of PBS control×100

C. albicans (ATCC 36082) = test: microbe, parasite or virus in culture
Protocol: Candida albicans (ATCC 36082) was cultured on Sabourad Dextrose Agar (SDA). A single colony was inoculated in Sabouraud Dextrose Broth (SDB) medium and grown overnight at 37 °C while shaking. The next day, the susceptibility of C. albicans was tested using a broth microdilution assay. Peptide analogs were diluted in SDB media by two-fold dilution, resulting in 100 µL of medium containing increasing concentrations of analogs. The overnight culture (turbidity at OD600 = 1) was 1000× diluted in SDB. Then 100 µL of this suspension was added to each well, resulting in a final 200 µL suspension containing 2–4 × 10^5 CFU/mL. The plate was incubated at 37 °C for 24 h. The next day, MIC (Minimum Inhibitory Concentration) values were determined as the concentrations of peptides causing > 99% inhibition of yeast growth.

B. subtilis (ATCC 23857) = test: Antibacterial broth microdilution MIC assay; assay type: cell-based, Bacillus subtilis; details: >99% inhibition of growth, MH broth, 20-22 h, 37 °C
Protocol: as §1

[6] = test system: cancer cells (MCF-7, HeLa); set-up: species or system human
Protocol: The selectivity of action of the analogs against micro-organisms or cancer cells was further evaluated through calculation of their selectivity indexes (SIs). SIs were determined using either the MIC on micro-organisms or IC50 on cancer cells compared to HC50 values, and they are reported in Table 6.

E. coli = test: Atomic force microscopy imaging of treated bacteria; assay type: cell-based, Escherichia coli; details: 2XMIC, overnight, tapping mode
Protocol: (§3) Different bacteria (S. typhi, E. coli, and P. aeruginosa) adjusted to 2–3 × 10^7 CFU/mL were treated with 2XMIC values of analogs and incubated overnight at 37 °C. The next day, the bacteria were washed, dispersed in sterile pure grade water, dispensed in poly-L-lysine-coated mica slides, and left for air drying. Changes in the morphology of the bacteria were studied with an atomic force microscope (Agilent 5500, Chandler, AZ, USA). The whole analysis was carried out in tapping mode. Images were collected and optimized at a scan velocity of 1–5 µm/s and 512 × 512-line resolution and processed through PicoView 1.2 imaging software.

[7] = Circular dichroism secondary structure analysis (Bestsel) in 20 mM SDS; assay type: physicochemical; details: CD, 15 µM peptide in 20 mM SDS, 22 °C
Protocol: The far-ultraviolet circular dichroism (CD) spectra were recorded using a JASCO J-810 spectropolarimeter (Jasco, Tokyo, Japan), with measurements taken in a quartz cuvette with a 10 mm path length. The temperature was kept at 22 °C, and the instrument was calibrated with D-(+)-10-camphorsulfonic acid. Peptides were dissolved in 20 mM SDS to a final concentration of 15 µM. The CD spectra were collected over a wavelength range of 190 to 260 nm with a bandwidth of 2 nm. Each spectrum was recorded with ten consecutive scans at a rate of 50 nm/min, and the baseline was obtained under identical conditions. Secondary structures, i.e., the percentage of alpha-helix and other secondary structures, were quantified from CD data using Bestsel software (https://bestsel.elte.hu/index.php, accessed on 22 October 2024).

P. aeruginosa = test: Atomic force microscopy imaging of treated bacteria; assay type: cell-based, Pseudomonas aeruginosa; details: 2XMIC, overnight, tapping mode
Protocol: as §3

[8] = MTT, 24 h exposure, read-out: IC50 on Cervical Cancer (HeLa)

| Compound | MIC [1] [µM] | MIC (E. coli (ATCC 25922)) [µM] | MIC S. aureus (NCTC 13277) (S. aureus (NCTC 13277)) [µM] | MIC S. typhi (ATCC 14028) (S. typhi (ATCC 14028); ATCC 14028) [µM] | IC50 [4, 8] [µM] | MIC (B. subtilis (ATCC 23857)) [µM] | IC50 ([3]; 24 h) [µM] | IC50 ([4]; 24 h) [µM] | IC50 [6] [µM] | HC50 on Human Red Blood Cells (RBCs) ([5]; red cells of human, 1 h) [µM] | MIC C. albicans (ATCC 36082) (C. albicans (ATCC 36082); ATCC 36082, 24 h) [µM] | other results |
| --- | --- | --- | --- | --- | --- | --- | --- | --- | --- | --- | --- | --- |
| CC[C@H](C)[C@H](NC(=O)[C@@H](C)NC(=O)[C@H](CO)NC(=O)[C@H](CC(C)C)NC(=O)[C@@H](N)Cc1ccccc1)C(=O)N[C@H](C(=O)NCC(=O)N[C@@H](CCSC)C(=O)N[C@@H](CC(C)C)C(=O)NCC(=O)N[C@@H](CCCCN)C(=O)N[C@@H](CC(C)C)C(=O)N[C@@H](Cc1ccccc1)C(N)=O)C(C)C [NST-2 (1), H-Phe^1-Leu^2-Ser^3-D-Ala^4-Ile^5-Val^6-Gly^7-Met^8-Leu^9-Gly^10-Lys^11-Leu^12-Phe^13-NH2] (H-FLS[dA]IVGMLGKLF-NH2) | >250 | 125 (≈ 174 µg/mL) | 14.34 (≈ 20 µg/mL) | 250 (≈ 349 µg/mL) | > 100 | 6.25 (≈ 8.72 µg/mL) | – | – | – | – | – | hemolysis HC50 [2]: 90.0 µM; IC50 ([3]; lowest IC50 on cancer cells = MCF-7 (peptides 1, 2, 7), from Table 5, read-out: Lower IC50): 17.9 µM; HC50 on Human Red Blood Cells (RBCs) ([5]; 1 h, 37 °C, 0.1% triton X-100 = 100% hemolysis): 90.0 µM; MIC C. albicans (ATCC 36082) (C. albicans (ATCC 36082); >99% inhibition of yeast growth, SDB, 24 h, 37 °C): 20 µM (≈ 27.9 µg/mL) |
| CC[C@H](C)[C@H](NC(=O)[C@@H](NC(=O)CNC(=O)[C@H](CCSC)NC(=O)[C@H](CC(C)C)NC(=O)CNC(=O)[C@H](CCCCN)NC(=O)[C@H](CC(C)C)NC(=O)[C@@H](N)Cc1ccccc1)C(C)C)C(=O)N[C@H](C)C(=O)N[C@@H](CO)C(=O)N[C@@H](CC(C)C)C(=O)N[C@@H](Cc1ccccc1)C(=O)N[C@@H](CCCCNC(=O)c1cn2c3c(c(N4CCN(C)CC4)c(F)cc3c1=O)OC[C@@H]2C)C(N)=O [RLFP-1 (4), H-Phe^1-Leu^2-Lys^3-Gly^4-Leu^5-Met^6-Gly^7-Val^8-Ile^9-D-Ala^10-Ser^11-Leu^12-Phe^13-Lys^14(LF)-NH2] (H-FLKGLMGVI[dA]SLFK(Levofloxacinoyl)-NH2) | >200 | >200 | 50 (≈ 93.3 µg/mL) | 25 (≈ 46.7 µg/mL) | – | 50 (≈ 93.3 µg/mL) | > 100 | > 100 | > 100 | 98.9 | >250 | HC50 on Human Red Blood Cells (RBCs) [5]: 98.6 µM |
| CC[C@H](C)[C@H](NC(=O)[C@@H](NC(=O)CNC(=O)[C@H](CCSC)NC(=O)[C@H](CC(C)C)NC(=O)CNC(=O)[C@H](CCCCNC(=O)c1cn2c3c(c(N4CCN(C)CC4)c(F)cc3c1=O)OC[C@@H]2C)NC(=O)[C@H](CC(C)C)NC(=O)[C@@H](N)Cc1ccccc1)C(C)C)C(=O)N[C@H](C)C(=O)N[C@@H](CO)C(=O)N[C@@H](CC(C)C)C(=O)N[C@@H](Cc1ccccc1)C(=O)N[C@@H](CCCCN)C(N)=O [RLFP-2 (5), H-Phe^1-Leu^2-Lys^3(LF)-Gly^4-Leu^5-Met^6-Gly^7-Val^8-Ile^9-D-Ala^10-Ser^11-Leu^12-Phe^13-Lys^14-NH2] (H-FLK(Levofloxacinoyl)GLMGVI[dA]SLFK-NH2) | >200 | >200 | 100 (≈ 187 µg/mL) | 200 (≈ 373 µg/mL) | – | 50 (≈ 93.3 µg/mL) | > 100 | > 100 | > 100 | 25.0 | >250 | – |
| CC[C@H](C)[C@H](NC(=O)[C@@H](NC(=O)CNC(=O)[C@H](CCSC)NC(=O)[C@H](CC(C)C)NC(=O)CNC(=O)[C@H](CCCCN)NC(=O)[C@H](CC(C)C)NC(=O)[C@@H](N)Cc1ccccc1)C(C)C)C(=O)N[C@H](C)C(=O)N[C@@H](CO)C(=O)N[C@@H](CC(C)C)C(=O)N[C@@H](Cc1ccccc1)C(=O)N[C@@H](CCCCN)C(N)=O [RSP-1 (3), H-Phe^1-Leu^2-Lys^3-Gly^4-Leu^5-Met^6-Gly^7-Val^8-Ile^9-D-Ala^10-Ser^11-Leu^12-Phe^13-Lys^14-NH2] (H-FLKGLMGVI[dA]SLFK-NH2) | 50 (≈ 76.1 µg/mL) | 25 (≈ 38.1 µg/mL) | 6.25 (≈ 9.52 µg/mL) | – | 33.5 | 1.56 (≈ 2.38 µg/mL) | 42.7 | – | – | 51.0 | 15.6 (≈ 23.8 µg/mL) | AFM morphology of E. coli after treatment (E. coli): significant damages to the bacteria; MIC S. typhi (ATCC 14028) (S. typhi (ATCC 14028); >99% inhibition of growth, MH broth, 20-22 h, 37 °C): 50 µM (≈ 76.1 µg/mL); Antiparallel (%) [7]: 18.2%; Helix (%) [7]: 81.8%; Others (%) [7]: 0.00%; Parallel (%) [7]: 0.00%; Turn (%) [7]: 0.00%; AFM morphology of P. aeruginosa after treatment (P. aeruginosa): significant damages to the bacteria |
